Our source for the MIC99 values is ChEMBL document CHEMBL3352679, “Structure and evaluation of antibacterial and antitubercular properties of new basic and heterocyclic 3-formylrifamycin SV derivatives obtained via 'click chemistry' approach” (Eur J Med Chem, 2014).

Values after ≈ are worked out from the molar mass of the structure shown.

The experiment relates to Mycobacterium tuberculosis variant bovis. The experiment is described as follows: Antituberculosis activity against Mycobacterium bovis after 14 days by serial microdilution method. The experiment is classed as functional. The note with it: 336 h.

Take `CO[C@H]1/C=C/O[C@@]2(C)Oc3c(C)c(O)c4c(O)c(c(C=O)c(O)c4c3C2=O)NC(=O)/C(C)=C\C=C\[C@H](C)[C@H](O)[C@@H](C)[C@@H](O)[C@@H](C)[C@H](OC(C)=O)[C@@H]1C`: the MIC99 was > 1 µg/mL.
In the case of `CO[C@H]1/C=C/O[C@@]2(C)Oc3c(C)c(O)c4c(O)c(c(CNCCN(C)C)c(O)c4c3C2=O)NC(=O)/C(C)=C\C=C\[C@H](C)[C@H](O)[C@@H](C)[C@@H](O)[C@@H](C)[C@H](OC(C)=O)[C@@H]1C`, the MIC99 was > 1 µg/mL.
On to `CO[C@H]1/C=C/O[C@@]2(C)Oc3c(C)c(O)c4c(O)c(c(CNCCN5CCCC5)c(O)c4c3C2=O)NC(=O)/C(C)=C\C=C\[C@H](C)[C@H](O)[C@@H](C)[C@@H](O)[C@@H](C)[C@H](OC(C)=O)[C@@H]1C`, for which the MIC99 worked out at 1 µg/mL (≈ 1.21 µM).
`CO[C@H]1/C=C/O[C@@]2(C)Oc3c(C)c(O)c4c(O)c(c(CNCCCN5CCCC5)c(O)c4c3C2=O)NC(=O)/C(C)=C\C=C\[C@H](C)[C@H](O)[C@@H](C)[C@@H](O)[C@@H](C)[C@H](OC(C)=O)[C@@H]1C` displayed an MIC99 of 1 µg/mL (≈ 1.19 µM).
In turn, `CO[C@H]1/C=C/O[C@@]2(C)Oc3c(C)c(O)c4c(O)c(c(CNCCCn5ccnc5)c(O)c4c3C2=O)NC(=O)/C(C)=C\C=C\[C@H](C)[C@H](O)[C@@H](C)[C@@H](O)[C@@H](C)[C@H](OC(C)=O)[C@@H]1C` yielded an MIC99 of 1 µg/mL (≈ 1.2 µM).
`CO[C@H]1/C=C/O[C@@]2(C)Oc3c(C)c(O)c4c(O)c(c(CNC5CCN(Cc6ccccc6)CC5)c(O)c4c3C2=O)NC(=O)/C(C)=C\C=C\[C@H](C)[C@H](O)[C@@H](C)[C@@H](O)[C@@H](C)[C@H](OC(C)=O)[C@@H]1C` gave an MIC99 of 0.125 µg/mL (≈ 0.139 µM).
In the case of `CO[C@H]1/C=C/O[C@@]2(C)Oc3c(C)c(O)c4c(O)c(c(CNCCCN5CCN(CCCNCc6c7c(O)c8c(O)c(C)c9c(c8c6O)C(=O)[C@@](C)(O/C=C/[C@H](OC)[C@@H](C)[C@@H](OC(C)=O)[C@H](C)[C@H](O)[C@H](C)[C@@H](O)[C@@H](C)/C=C/C=C(/C)C(=O)N7)O9)CC5)c(O)c4c3C2=O)NC(=O)/C(C)=C\C=C\[C@H](C)[C@H](O)[C@@H](C)[C@@H](O)[C@@H](C)[C@H](OC(C)=O)[C@@H]1C`, the MIC99 is > 1 µg/mL.
In turn, `CCCc1cn(CCNCc2c3c(O)c4c(O)c(C)c5c(c4c2O)C(=O)[C@@](C)(O/C=C/[C@H](OC)[C@@H](C)[C@@H](OC(C)=O)[C@H](C)[C@H](O)[C@H](C)[C@@H](O)[C@@H](C)/C=C/C=C(/C)C(=O)N3)O5)nn1` yielded an MIC99 of 1 µg/mL (≈ 1.16 µM).
In turn, `CCCCCc1cn(CCCNCc2c3c(O)c4c(O)c(C)c5c(c4c2O)C(=O)[C@@](C)(O/C=C/[C@H](OC)[C@@H](C)[C@@H](OC(C)=O)[C@H](C)[C@H](O)[C@H](C)[C@@H](O)[C@@H](C)/C=C/C=C(/C)C(=O)N3)O5)nn1` displayed an MIC99 of 0.5 µg/mL (≈ 0.552 µM).
In turn, `CO[C@H]1/C=C/O[C@@]2(C)Oc3c(C)c(O)c4c(O)c(c(CNCc5cn(CN6C(=O)c7ccccc7C6=O)nn5)c(O)c4c3C2=O)NC(=O)/C(C)=C\C=C\[C@H](C)[C@H](O)[C@@H](C)[C@@H](O)[C@@H](C)[C@H](OC(C)=O)[C@@H]1C` gave an MIC99 of 0.25 µg/mL (≈ 0.259 µM).
The result for `CCCc1cn(CCN2Cc3c4c(O)c5c(O)c(C)c6c(c5c3O)C(=O)[C@@](C)(O/C=C/[C@H](OC)[C@@H](C)[C@@H](OC(C)=O)[C@H](C)[C@H](O)[C@H](C)[C@@H](O)[C@@H](C)/C=C/C=C(/C)C2=N4)O6)nn1` reads 0.5 µg/mL (≈ 0.591 µM).
The result for `CCCCCc1cn(CCCN2Cc3c4c(O)c5c(O)c(C)c6c(c5c3O)C(=O)[C@@](C)(O/C=C/[C@H](OC)[C@@H](C)[C@@H](OC(C)=O)[C@H](C)[C@H](O)[C@H](C)[C@@H](O)[C@@H](C)/C=C/C=C(/C)C2=N4)O6)nn1` reads 0.5 µg/mL (≈ 0.563 µM).
In turn, `CO[C@H]1/C=C/O[C@@]2(C)Oc3c(C)c(O)c4c(O)c5c(c(O)c4c3C2=O)CN(Cc2cn(CN3C(=O)c4ccccc4C3=O)nn2)C(=N5)/C(C)=C\C=C\[C@H](C)[C@H](O)[C@@H](C)[C@@H](O)[C@@H](C)[C@H](OC(C)=O)[C@@H]1C` displayed an MIC99 of 0.5 µg/mL (≈ 0.527 µM).
The result for `CO[C@H]1/C=C\O[C@@]2(C)Oc3c(C)c(O)c4c(O)c(c(CNC5CCN(Cc6ccccc6)CC5)c(O)c4c3C2=O)NC(=O)/C(C)=C\C=C/[C@H](C)[C@H](O)[C@@H](C)[C@@H](O)[C@@H](C)[C@H](OC(C)=O)[C@@H]1C` reads 0.125 µg/mL (≈ 0.139 µM); that for `CO[C@H]1/C=C/O[C@@]2(C)Oc3c(C)c(O)c4c(O)c(c(/C=N/N5CCN(C)CC5)c(O)c4c3C2=O)NC(=O)/C(C)=C\C=C\[C@H](C)[C@H](O)[C@@H](C)[C@@H](O)[C@@H](C)[C@H](OC(C)=O)[C@@H]1C` [RIFAMPIN], 0.25 µg/mL (≈ 0.304 µM).

What is called MIC99 is the lowest concentration that inhibits either 99% of growth or 99% of the strains tested, depending on the study.
